Assay [1] deals with TYR, TYRP1, DCT and MITF protein in B16-F10 cells. The assay is described as follows: Western blotting of melanogenic proteins. Type of assay: cell-based, murine. The conditions noted are these: 100 nM α-MSH, 24 h, β-actin loading control. The procedure:
Western blotting was performed as previously described. Primary antibodies for TYR (#127217) was purchased from MyBioSource (San Diego, CA, USA). Primary antibodies for TYRP1 (#10443) and β-actin (#47778) were purchased from Santa Cruz Biotechnology (Santa Cruz, CA, USA). Primary antibodies for MITF (#20663) and DCT (#74073) were purchased from Abcam (Cambridge, UK). Anti-rabbit IgG (#2357) and anti-goat IgG (#2020) secondary antibodies were purchased from Santa Cruz Biotechnology. Anti-mouse IgG (#7076) secondary antibody was purchased from Cell Signaling Technology (Danvers, MA, USA). Each antibody was diluted 1 to 1000 in antibody dilution buffer containing 20 mM Tris-Cl (pH 7.5), 200 mM NaCl and 5% skim milk.
After B16-F10 cells were treated with drug and/or α-MSH, whole-cell lysates were prepared using a lysis buffer (pH 7.2) consisting of 10 mM Tris-Cl (pH 7.4), 120 mM NaCl, 25 mM KCl, 2 mM EGTA, 1 mM EDTA, 0.5% Triton X-100 and a protease inhibitor cocktail (Roche, Mannheim, Germany) for foe evaluation of TYR, TYRP1, and DCT. For MITF extraction, cells were extracted with RIPA buffer consisting of 25 mM Tris-HCl (pH 7.6), 150 mM NaCl, 1% NP-40, 1% sodium deoxycholate, 0.1% SDS and protease inhibitor cocktail. Proteins were denatured in the Laemmli sample buffer by heating at 95 °C for 5 min and separated by 7.5% SDS-PAGE gel. Proteins were transferred to a polyvinylidene difluoride membrane (Amersham Pharmacia, Little Chalfont, UK). The membrane was incubated with a primary antibody solution at 4 °C overnight, followed by incubation with a solution of a secondary antibody conjugated to horseradish peroxidase at room temperature for 1 h. The target protein bands were detected by a chemiluminescence method using a picoEPD Western Reagent kit (ELPIS-Biotech, Daejeon, Korea). The blots were analyzed using the NIH Image J program.
(In general: Immunoblotting shows a protein as a band on a membrane.)

For the next assay, the system named is TYR. Description: In vitro TYR catalytic activity, murine and human TYR given together (abstract). It is filed as biochemical. As to conditions: range over human and murine TYR preparations. The procedure: (§1) To examine the direct effect of a drug on the catalytic activity of TYR, in vitro experiments were undertaken. Lysate of B16F10 cells stimulated with α-MSH for 24 h was used as a murine TYR preparation. Human TYR preparation was the lysate of human embryonic kidney 293 cells constitutively expressing human TYR (HEK293-TYR). […] The TYR activity assay mixture (200 μL) consisted of 100 mM sodium phosphate buffer (pH 6.8), TYR preparation (40 μg protein), a drug at various concentrations, 1.0 mM L-tyrosine, and 42 μΜ L-DOPA. For enzyme kinetic study, the concentrations of L-tyrosine plus L-DOPA were varied while their relative ratio was kept the same as the standard assay condition. […] The reactions were also performed in the absence of a TYR preparation to correct for the effects of non-enzymatic reactions. Enzyme activity was calculated as follows: activity (% control) = (C−D)/(A−B) × 100, where A and B are the absorbance changes of the control group with and without enzyme, respectively, while C and D are the absorbance changes of the test group with and without enzyme, respectively.

The test system of assay [2] is B16-F10 murine melanoma cells. Description: Screening assay for overall melanin synthesis (OD 400 nm) in α-MSH-stimulated cells. Type of assay: cell-based. As to conditions: 100 nM α-MSH, 72 h. As to the method:
For the screening assay, B16-F10 cells were plated in 96-well plates (3 × 10^3 cells per well) and cultured for 24 h. The cells were then treated with a test drug at 1.0 μM for 60 min, and subsequently stimulated with 0.1 μM α-MSH for 72 h. Overall melanin synthesis was estimated by measuring the absorbance of each well (cells plus medium, without cell lysis) at 400 nm using a Spectrostar Nano microplate reader (BMG LABTECH GmbH, Ortenberg, Germany).

For the next assay, the target named is T1, murine TYR (Mus musculus, UniProt P11344).
T1 construct: One is the protein extract of B16F10 cells stimulated by α-MSH and thus expresses a high amount of TYR; endogenous in cells; host or cells: B16F10 murine melanoma cells stimulated with α-MSH for 24 h; Triton X-100 lysate supernatant
T1 sequence (P11344 19-533): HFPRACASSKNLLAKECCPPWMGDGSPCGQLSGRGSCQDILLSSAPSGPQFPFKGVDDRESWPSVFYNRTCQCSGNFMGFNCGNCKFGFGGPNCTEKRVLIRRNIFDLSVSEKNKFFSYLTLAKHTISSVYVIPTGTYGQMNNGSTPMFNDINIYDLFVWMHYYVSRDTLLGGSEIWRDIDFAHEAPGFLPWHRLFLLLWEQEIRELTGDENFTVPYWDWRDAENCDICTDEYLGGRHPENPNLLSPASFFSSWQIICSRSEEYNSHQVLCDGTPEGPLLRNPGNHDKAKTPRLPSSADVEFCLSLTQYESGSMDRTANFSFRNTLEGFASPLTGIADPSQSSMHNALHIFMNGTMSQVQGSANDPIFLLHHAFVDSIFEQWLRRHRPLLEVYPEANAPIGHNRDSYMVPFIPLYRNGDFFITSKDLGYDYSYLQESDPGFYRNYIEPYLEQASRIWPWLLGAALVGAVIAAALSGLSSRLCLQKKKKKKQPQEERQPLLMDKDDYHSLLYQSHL
The assay is described as follows: In vitro TYR catalytic activity assay, lysate of α-MSH-stimulated B16F10 cells. It is filed as biochemical. The procedure: as §1

The text below walks through data of publication PMC7370187, “Screening of an Epigenetic Drug Library Identifies 4-((hydroxyamino)carbonyl)-N-(2-hydroxyethyl)-N-Phenyl-Benzeneacetamide that Reduces Melanin Synthesis by Inhibiting Tyrosinase Activity Independently of Epigenetic Mechanisms” (International Journal of Molecular Sciences, 2020).

pIC50: −log10 of the molar value. “Also recorded” adds a separate entry of the source.

In general, pIC50 refers to the negative decadic logarithm of the IC50, by convention in mol/L.

`O=C(NO)c1ccc(CC(=O)N(CCO)c2ccccc2)cc1` [K8, 4-((hydroxyamino)carbonyl)-N-(2-hydroxyethyl)-N-phenyl-benzeneacetamide]: in assay [1], the DCT protein level entry is listed as “did not significantly attenuate the increase”, the MITF protein expression result was “not significantly affected”, the “TRP1 (TYRP1) protein level” value is recorded as “did not significantly attenuate the increase” and the TYR protein level result was “did not significantly attenuate the increase”. The pIC50 with TYR is 5.82 to 5.96. Further, the “relative melanin synthesis (OD 400 nm)” value in assay [2] (drug 1.0 μM) was “markedly inhibited cellular melanin synthesis”. Also, in assay [2] (drug at varied concentrations), the “melanin synthesis (OD 400)” value is “attenuated by both drugs in a dose-dependent manner; also recorded: suppressed almost all melanin synthesis”. For the same molecule, the pIC50 on murine TYR (B16F10 cell-free extract, L-tyrosine plus L-DOPA) was 5.82. For the same molecule, on murine TYR (murine TYR, varying substrate concentrations), the “inhibition type (Lineweaver–Burk plots)” value is listed as “competitive type of inhibition”.
